The values below are quoted from earlier work in patent EP4755392A1, “ORAL PREPARATION FOR IMPROVING MINIMAL ERYTHEMA DOSE” (Mitsubishi Corporation Life Sciences Limited, priority 2023, dated 2025).

For this data set the following is noted: after 6 months, ingesting 250 mg or more.

As for `N[C@@H](CCC(=O)N[C@@H](CS)C(=O)NCC(=O)O)C(=O)O` [glutathione], the “blood glutathione amount increased” value was 17%.
